Measurements: ChEMBL document CHEMBL2069167, “Synthesis and structure-activity relationship of (1-halo-2-naphthyl) carbamate-based inhibitors of KIAA1363 (NCEH1/AADACL1)” (Bioorg Med Chem Lett, 2012)

Legend:
[1] = target: T1, Neutral cholesterol ester hydrolase 1 (Homo sapiens, UniProt Q6PIU2); assay: Inhibition of human KIAA1363 expressed in 293T/17 cells using 2-thioacetyl MAGE as substrate preincubated for 20 mins measured after 1 hr; format: cell-based
T1 sequence (Q6PIU2 whole entry): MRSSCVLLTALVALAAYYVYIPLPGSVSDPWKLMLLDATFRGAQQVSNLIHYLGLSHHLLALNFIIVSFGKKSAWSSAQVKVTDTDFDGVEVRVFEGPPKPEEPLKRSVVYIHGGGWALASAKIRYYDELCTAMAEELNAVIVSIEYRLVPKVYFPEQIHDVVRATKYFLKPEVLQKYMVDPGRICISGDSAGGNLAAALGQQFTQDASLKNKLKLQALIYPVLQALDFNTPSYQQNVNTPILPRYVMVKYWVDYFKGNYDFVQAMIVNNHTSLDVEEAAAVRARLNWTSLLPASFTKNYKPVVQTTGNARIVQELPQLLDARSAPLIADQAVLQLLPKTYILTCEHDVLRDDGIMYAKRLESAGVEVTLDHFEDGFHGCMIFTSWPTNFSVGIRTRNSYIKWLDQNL

[2] = tested on: Mus musculus; assay: Inhibition of KIAA1363 in tumor of SCID mouse xenografted with human SK-OV-3 cells at 100 mg/kg, po after 2 hrs by fluorescence assay; format: functional; conditions: SK-OV-3, 2 h
[3] = tested on: Mus musculus; assay: Inhibition of KIAA1363 in heart of SCID mouse at 100 mg/kg, ip after 2 hrs by fluorescence assay; format: functional; conditions: route intraperitoneal
[4] = tested on: Mus musculus; assay: Inhibition of KIAA1363 in tumor of SCID mouse xenografted with human SK-OV-3 cells at 100 mg/kg, ip after 2 hrs by fluorescence assay; format: functional; conditions: SK-OV-3, ip, route intraperitoneal

Row | Compound | IC50 [1] [µM] | inhibition in vivo at 100 mg/kg [2] [%] | also measured
1 | CN(C)C(=O)Oc1ccc2ccccc2c1Cl | 1.1 | – | –
2 | CN(C)C(=O)Oc1ccccc1Br | > 100 | – | –
3 | CN(C)C(=O)Oc1ccc2ccccc2c1C#N | > 100 | – | –
4 | CN(C)C(=O)Oc1ccc2cc(C#N)ccc2c1Br | – | 14 | –
5 | CCCc1ccc2c(Br)c(OC(=O)N(C)C)ccc2c1 | – | 22 | inhibition in vivo at 100 mg/kg [3]: 66%; inhibition in vivo at 100 mg/kg [4]: 64%
6 | CN(C)C(=O)Oc1ccc2cc(Br)ccc2c1Br | – | 18 | –
7 | CN(C)C(=O)Oc1ccc2ccccc2c1 [NAPHTHALEN-2-YL DIMETHYLCARBAMATE] | > 100 | – | –
